{
  "source": "patent US5510255A",
  "about": "“Plant fatty acid synthases” (priority 1993, dated 1996)",
  "key": {"synthase III": {"target": "T1, synthase III (Arabidopsis thaliana, UniProt P49243)", "T1 sequence (P49243 44-404)": "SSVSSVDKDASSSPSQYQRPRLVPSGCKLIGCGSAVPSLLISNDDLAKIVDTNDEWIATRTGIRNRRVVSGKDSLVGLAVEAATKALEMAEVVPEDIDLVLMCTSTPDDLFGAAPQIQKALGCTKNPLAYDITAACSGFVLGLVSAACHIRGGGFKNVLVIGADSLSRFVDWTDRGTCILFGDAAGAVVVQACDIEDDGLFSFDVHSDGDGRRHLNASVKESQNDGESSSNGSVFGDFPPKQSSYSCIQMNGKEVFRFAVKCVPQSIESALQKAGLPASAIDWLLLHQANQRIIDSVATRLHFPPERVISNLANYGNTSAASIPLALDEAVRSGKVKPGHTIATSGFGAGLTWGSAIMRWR", "assay": "Inhibition with cerulenin", "type": "biochemical", "from_the_text": "(§1) Other plant synthases may also find applicability by this invention, including synthase III type activities. Differences between synthases I, II, and III are also observed in inhibition with cerulenin. […] In FIG. 1, a time course assay of cerulenin effects on synthase I and synthase II activities is provided."}, "Synthase I [1]": {"target": "T2, Synthase I (Arabidopsis thaliana, UniProt P52410)", "T2 sequence (P52410 47-473)": "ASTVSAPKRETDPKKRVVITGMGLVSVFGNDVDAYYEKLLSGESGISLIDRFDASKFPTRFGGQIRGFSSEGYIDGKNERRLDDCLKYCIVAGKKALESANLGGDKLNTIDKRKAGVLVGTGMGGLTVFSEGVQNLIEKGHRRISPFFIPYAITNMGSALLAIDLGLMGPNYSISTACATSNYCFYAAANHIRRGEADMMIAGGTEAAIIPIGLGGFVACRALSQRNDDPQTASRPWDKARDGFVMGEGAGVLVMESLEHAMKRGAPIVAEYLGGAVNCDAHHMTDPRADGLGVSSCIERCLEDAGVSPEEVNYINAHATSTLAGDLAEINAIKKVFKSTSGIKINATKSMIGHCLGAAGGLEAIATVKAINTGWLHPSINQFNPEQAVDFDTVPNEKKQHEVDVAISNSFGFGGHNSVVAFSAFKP", "assay": "Inhibition with cerulenin", "type": "biochemical", "from_the_text": "as §1"}, "synthase II [2]": {"target": "T3, synthase II (Arabidopsis thaliana, UniProt Q9C9P4)", "T3 sequence (Q9C9P4 104-541)": "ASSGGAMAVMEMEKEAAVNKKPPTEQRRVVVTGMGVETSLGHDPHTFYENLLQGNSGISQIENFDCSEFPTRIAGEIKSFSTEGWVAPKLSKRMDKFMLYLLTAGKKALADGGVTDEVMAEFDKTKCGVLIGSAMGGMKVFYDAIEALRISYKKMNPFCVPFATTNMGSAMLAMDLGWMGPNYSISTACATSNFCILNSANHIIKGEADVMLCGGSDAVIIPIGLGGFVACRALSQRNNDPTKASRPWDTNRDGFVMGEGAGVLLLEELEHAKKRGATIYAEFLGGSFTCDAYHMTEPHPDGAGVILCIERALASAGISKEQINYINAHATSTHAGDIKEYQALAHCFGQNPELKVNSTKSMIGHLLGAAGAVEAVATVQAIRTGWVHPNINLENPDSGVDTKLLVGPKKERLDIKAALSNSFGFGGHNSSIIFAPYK", "assay": "Inhibition with cerulenin", "type": "biochemical", "from_the_text": "as §1"}, "synthase II [3]": {"test_system": "synthase II", "details": "cited from earlier work"}, "type-II synthase": {"target": "T4, type-II synthase (Ricinus communis, UniProt Q41134)", "T4 construct": "mature plastid protein", "T4 sequence (Q41134 117-535)": "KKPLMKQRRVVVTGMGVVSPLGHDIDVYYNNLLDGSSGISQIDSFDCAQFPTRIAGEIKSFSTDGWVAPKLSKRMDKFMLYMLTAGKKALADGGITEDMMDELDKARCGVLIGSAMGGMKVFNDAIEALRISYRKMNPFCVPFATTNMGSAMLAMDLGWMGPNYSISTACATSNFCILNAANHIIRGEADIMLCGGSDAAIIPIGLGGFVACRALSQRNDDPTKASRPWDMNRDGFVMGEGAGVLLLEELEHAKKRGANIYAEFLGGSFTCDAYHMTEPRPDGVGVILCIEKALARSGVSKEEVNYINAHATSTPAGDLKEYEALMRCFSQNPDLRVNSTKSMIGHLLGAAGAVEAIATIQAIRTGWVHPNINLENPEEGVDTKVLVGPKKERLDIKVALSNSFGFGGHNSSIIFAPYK", "type": "biochemical, R. communis"}, "synthase I [4]": {"test_system": "synthase I", "details": "cited from earlier work"}, "synthase I [5]": {"test_system": "T5, synthase I", "T5 construct": "from tissue; host or cells: S. oleracea leaf, cellulose phosphate flow-through", "assay": "Cerulenin sensitivity of cellulose phosphate flow-through fraction", "type": "biochemical, S. oleracea", "details": "0.25 h, 5 μM cerulenin, 15 minutes, room temperature, read-out: reduction of decanoyl-ACP activity", "experimental": "(§2) Each enzyme source is incubated with 5 μM cerulenin for 15 minutes at room temperature before being assayed with each of the acyl-ACP substrates. After incubation with cerulenin, the decanoyl-ACP activity is reduced 99% in the cellulose phosphate flow-through fraction and only 69% in the synthase II fraction. The palmitoyl-ACP activity in the synthase II fraction is not inhibited by the cerulenin treatment."}, "synthase II [6]": {"test_system": "synthase II", "assay": "Cerulenin sensitivity of synthase II fraction from cellulose phosphate", "type": "biochemical, S. oleracea", "details": "5 μM cerulenin, 15 minutes, room temperature", "experimental": "as §2"}, "type-I synthase": {"target": "T6, type-I synthase (Ricinus communis, UniProt Q41135)", "T6 construct": "mature plastid protein", "T6 sequence (Q41135 43-469)": "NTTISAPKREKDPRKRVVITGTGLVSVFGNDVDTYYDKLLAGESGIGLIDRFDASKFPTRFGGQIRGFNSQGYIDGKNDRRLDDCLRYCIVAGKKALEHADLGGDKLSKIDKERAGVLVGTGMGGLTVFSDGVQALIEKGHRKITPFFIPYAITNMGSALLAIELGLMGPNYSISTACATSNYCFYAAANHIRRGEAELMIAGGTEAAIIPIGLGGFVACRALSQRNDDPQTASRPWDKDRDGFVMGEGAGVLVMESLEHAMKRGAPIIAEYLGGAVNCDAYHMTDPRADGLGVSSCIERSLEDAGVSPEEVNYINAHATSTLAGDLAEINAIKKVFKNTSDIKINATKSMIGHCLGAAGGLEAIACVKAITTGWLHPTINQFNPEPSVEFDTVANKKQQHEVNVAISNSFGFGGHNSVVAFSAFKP", "assay": "biochemical", "design": "species or system R. communis"}, "[7]": {"details": "cerulenin concentrations above 50 μM"}},
  "data": [
    {"compound": "C/C=C/C/C=C/CCC(=O)[C@H]1O[C@H]1C(N)=O", "note": "[cerulenin]", "values": [
      {"measurement": "sensitivity of synthase III to cerulenin", "setting": "synthase III", "result": "least sensitive"},
      {"measurement": "sensitivity of synthase I to cerulenin", "setting": "Synthase I [1]", "result": "most sensitive"},
      {"measurement": "sensitivity of synthase II to cerulenin", "setting": "synthase II [2]", "result": "less sensitive"},
      {"measurement": "reaction with active site of synthase II", "setting": "synthase II [3]; 5 μM cerulenin", "result": "not synthase II"},
      {"measurement": "reaction with synthase II", "setting": "synthase II [3]; [7]", "result": "react readily"},
      {"measurement": "sensitivity of activity with C16:0-ACP (type-II synthase) to cerulenin", "setting": "type-II synthase", "result": "virtually insensitive"},
      {"measurement": "reaction with active site of synthase I", "setting": "synthase I [4]; 5 μM cerulenin", "result": "reacts readily"},
      {"measurement": "reaction with synthase I", "setting": "synthase I [4]; [7]", "result": "react readily"},
      {"measurement": "inhibition at 5 µM", "setting": "synthase I [5]", "result": 99, "unit": "%"},
      {"measurement": "inhibition of palmitoyl-ACP activity", "setting": "synthase II [6]", "result": "not inhibited"},
      {"measurement": "reduction of decanoyl-ACP activity", "setting": "synthase II [6]", "result": 69, "unit": "%"},
      {"measurement": "inactivation of type-I synthase", "setting": "type-I synthase", "result": "completely inactivated"},
      {"measurement": "inhibition at 5 µM", "setting": "type-I synthase; read-out: inhibition of activity with C10:0-ACP", "result": "> 80", "unit": "%"}
    ]}
  ]
}
